Like-named read-outs stand apart in the source and are kept apart here.
Columns and labels:
[1] = target: T1, PDGF-Ra (Homo sapiens, UniProt P16234); test: Inhibitory activity against PDGF-Ra phosphorylation by PDGF-AA stimulation using G292; format: cell-based; conditions: for IC50: > means inhibition at indicated concentration not more than 50%, < and << not less than 50%, read-out: PDGF (E) IC50; for inhibition at 0.1 µM: G292, figure within parentheses in >100( ), at 100 nM, read-out: PDGF (E) inhibition (%) at 100 nM
T1 construct: host or cells: G-292 human osteosarcoma cells
T1 sequence (P16234 24-1089): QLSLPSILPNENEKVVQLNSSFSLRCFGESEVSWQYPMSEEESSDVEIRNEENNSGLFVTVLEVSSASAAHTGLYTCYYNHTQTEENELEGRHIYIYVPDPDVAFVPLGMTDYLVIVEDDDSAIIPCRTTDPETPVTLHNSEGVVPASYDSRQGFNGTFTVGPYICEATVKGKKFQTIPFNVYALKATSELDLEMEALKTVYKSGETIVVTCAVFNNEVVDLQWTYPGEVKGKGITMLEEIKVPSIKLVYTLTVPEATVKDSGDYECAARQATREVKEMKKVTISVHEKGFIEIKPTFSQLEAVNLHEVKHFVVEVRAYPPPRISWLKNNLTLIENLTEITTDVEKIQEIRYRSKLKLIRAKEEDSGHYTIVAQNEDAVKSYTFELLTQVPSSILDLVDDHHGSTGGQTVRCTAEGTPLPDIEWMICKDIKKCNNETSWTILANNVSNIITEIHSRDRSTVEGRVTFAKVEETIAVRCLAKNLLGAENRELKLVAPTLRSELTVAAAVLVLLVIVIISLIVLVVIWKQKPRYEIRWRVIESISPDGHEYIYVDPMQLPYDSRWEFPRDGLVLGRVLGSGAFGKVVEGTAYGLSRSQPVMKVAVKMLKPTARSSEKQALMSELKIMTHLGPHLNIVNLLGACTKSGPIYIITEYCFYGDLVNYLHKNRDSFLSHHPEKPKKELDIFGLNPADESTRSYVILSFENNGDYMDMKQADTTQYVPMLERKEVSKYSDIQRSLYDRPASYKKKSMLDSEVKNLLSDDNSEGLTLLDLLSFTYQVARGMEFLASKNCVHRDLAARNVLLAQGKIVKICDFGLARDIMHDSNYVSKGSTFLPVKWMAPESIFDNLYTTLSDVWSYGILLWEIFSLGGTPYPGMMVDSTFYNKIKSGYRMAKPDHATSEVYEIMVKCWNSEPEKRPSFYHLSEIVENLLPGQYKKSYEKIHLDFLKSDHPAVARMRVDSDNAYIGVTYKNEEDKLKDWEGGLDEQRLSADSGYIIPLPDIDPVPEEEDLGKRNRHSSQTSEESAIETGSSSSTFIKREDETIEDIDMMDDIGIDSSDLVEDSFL
In short: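 Cells seeded in low-serum medium are exposed to test compound for one hour, then PDGF-AA (50 ng/ml) triggers receptor phosphorylation for 5 min at 37 °C. Phospho-PDGF-Ra in solubilized cells is quantified by anti-phosphotyrosine capture ELISA at 450 nm.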

[2] = target: T2, c-kit (Homo sapiens, UniProt P10721); test: Inhibitory activity against c-kit autophosphorylation (MO7e cells, h-SCF); format: cell-based; conditions: for IC50: MO7e cells, read-out: c-kit IC50; for inhibition at 1 µM: Mo7e, at 1000 nM
T2 construct: MO7e (human megakaryocytic leukemia cell line) which had been arrested for 20 hr; endogenous in cells; host or cells: MO7e human megakaryocytic leukemia cell line
T2 sequence (P10721 26-976): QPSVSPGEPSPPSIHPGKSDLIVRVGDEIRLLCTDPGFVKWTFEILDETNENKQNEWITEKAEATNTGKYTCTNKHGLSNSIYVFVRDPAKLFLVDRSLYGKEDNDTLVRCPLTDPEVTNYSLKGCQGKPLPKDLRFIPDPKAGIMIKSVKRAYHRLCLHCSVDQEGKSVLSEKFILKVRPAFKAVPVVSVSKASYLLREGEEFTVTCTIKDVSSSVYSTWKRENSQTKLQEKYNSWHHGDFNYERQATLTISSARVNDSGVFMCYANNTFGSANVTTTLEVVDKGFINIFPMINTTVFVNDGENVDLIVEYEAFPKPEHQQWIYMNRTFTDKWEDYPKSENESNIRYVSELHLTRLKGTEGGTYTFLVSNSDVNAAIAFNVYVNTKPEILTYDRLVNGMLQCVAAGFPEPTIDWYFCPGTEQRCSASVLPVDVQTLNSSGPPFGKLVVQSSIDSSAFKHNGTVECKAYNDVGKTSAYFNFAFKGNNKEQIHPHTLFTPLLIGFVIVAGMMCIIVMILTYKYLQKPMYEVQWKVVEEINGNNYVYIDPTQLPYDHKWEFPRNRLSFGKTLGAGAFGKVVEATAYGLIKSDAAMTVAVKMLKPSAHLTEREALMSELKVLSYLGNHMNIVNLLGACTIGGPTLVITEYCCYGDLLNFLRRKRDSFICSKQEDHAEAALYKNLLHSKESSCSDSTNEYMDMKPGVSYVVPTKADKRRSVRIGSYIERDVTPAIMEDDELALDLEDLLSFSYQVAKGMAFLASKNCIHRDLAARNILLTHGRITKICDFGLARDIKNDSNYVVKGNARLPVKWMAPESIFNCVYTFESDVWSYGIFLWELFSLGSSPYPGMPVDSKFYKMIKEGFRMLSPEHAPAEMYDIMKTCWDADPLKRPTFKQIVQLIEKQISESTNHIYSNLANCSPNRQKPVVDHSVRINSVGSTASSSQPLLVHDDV
In short: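 Ligand-induced c-kit tyrosine phosphorylation is measured in MO7e cells that were quiesced 20 hr and preincubated with compound for 1 hr prior to a 5 min pulse of 50 ng/ml human SCF. Phospho-c-kit is detected by anti-phosphotyrosine capture ELISA, A450.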

[3] = figure within parentheses in −( ) or >1000( )

Row | SMILES | IC50 [1] | IC50 ([1]; Pharmacological Test Example 1) | IC50 ([2]; h-SCF 50 ng/ml) | other results
1 | COc1cc2ncnc(Oc3ccc(N(C)C(=O)OC4CCCCC4)cc3)c2cc1OC [Example 476, Cyclohexyl N-{4-[(6,7-dimethoxy-4-quinazolinyl)oxy]phenyl}-N-methylcarbamate] | < 10 nM | – | – | IC50 ([2]; 50 ng/ml h-SCF): 172 nM
2 | COc1cc2nccc(Oc3cc(C)c(NC(=O)Oc4ccccc4C(C)(C)C)cc3C)c2cc1OC [Example 301, 2-(Tert-butyl)phenyl N-{4-[(6,7-dimethoxy-4-quinolyl)oxy]-2,5-dimethylphenyl}carbamate] | – | 43 nM | – | inhibition at 1 µM ([2]; figure in parentheses in −( )): 39%
3 | COc1cc2nccc(Oc3ccc(NC(=O)NC4CCN(Cc5ccccc5)CC4)c([N+](=O)[O-])c3)c2cc1OC [Example 638, N-(1-Benzyl-4-piperidyl)-N′-{4-[(6,7-dimethoxy-4-quinolyl)oxy]-2-nitrophenyl}urea] | > 100 nM | – | – | inhibition at 0.1 µM [1]: 43%; inhibition at 1 µM [2, 3]: 16%
4 | CCCCC(CC)OC(=O)Nc1cc(C)c(Oc2ccnc3cc(OC)c(OC)cc23)cc1C (centres unmarked) [Example 330, 1-Ethylpentyl N-{4-[(6,7-dimethoxy-4-quinolyl)oxy]-2,5-dimethylphenyl}carbamate] | – | 12 nM | 467 nM | –
5 | CCN(CC)C(=O)NC(=S)Nc1ccc(Oc2ccnc3cc(OC)c(OC)cc23)cc1 [Example 1041, N-{4-[(6,7-Dimethoxy-4-quinolyl)oxy]phenyl}-{[(diethylamino)carbonyl]amino}methanethioamide] | 12 nM | – | – | IC50 ([2]; h-SCF stimulation): 98 nM
6 | COc1cc2ncnc(Oc3ccc(NC(=O)OCCCOc4cccc(F)c4)cc3)c2cc1OC [Example 150, 3-(3-Fluorophenoxy)propyl N-{4-[(6,7-dimethoxy-4-quinazolinyl)oxy]phenyl}carbamate] | – | < 10 nM | 38 nM | –
7 | COc1cc2ncnc(Oc3ccc(NC(=O)OC(C)c4ccccc4F)cc3)c2cc1OC (centres unmarked) [Example 125] | – | < 10 nM | 671 nM | –
8 | COc1cc2nccc(Oc3ccc(NC(=O)Oc4c(C)cccc4C)cc3)c2cc1OC [Example 269, 2,6-Dimethylphenyl N-{4-[(6,7-dimethoxy-4-quinolyl)oxy]phenyl}carbamate] | – | 17 nM | – | inhibition at 1 µM ([2]; figure in parentheses in −( )): 48%
9 | COc1cc2nccc(Oc3ccc(NC(=S)NC(=O)CCc4ccc(C)cc4)cc3)c2cc1OC [Example 721, N-{4-[(6,7-Dimethoxy-4-quinolyl)oxy]phenyl}-N′-[3-(4-methylphenyl)propanoyl]thiourea] | 36 nM | – | – | inhibition at 1 µM [2, 3]: 20%
10 | COc1cc2ncnc(Oc3ccc(NC(=O)OCC4CCCCCC4)cc3)c2cc1OC [Example 351, Cycloheptylmethyl N-{4-[(6,7-dimethoxy-4-quinazolinyl)oxy]phenyl}carbamate] | – | < 10 nM | 64 nM | –
11 | COc1cc2nccc(Oc3cc(C)c(NC(=O)OCc4cccc(Cl)c4)cc3C)c2cc1OC [Example 242, 3-Chlorobenzyl N-{4-[(6,7-dimethoxy-4-quinolyl)oxy]-2,5-dimethylphenyl}carbamate] | – | 21 nM | 192 nM | –
12 | COc1cc2ncnc(Oc3ccc(N(C)C(=O)OCc4ccccc4Cl)cc3)c2cc1OC [Example 492, 2-Chlorobenzyl N-{4-[(6,7-dimethoxy-4-quinazolinyl)oxy]phenyl}-N-methylcarbamate] | 20 nM | – | – | IC50 ([2]; 50 ng/ml h-SCF): 321 nM
13 | COc1cc2nccc(Oc3ccc(NC(=O)OCc4ccccn4)c(C)c3C)c2cc1OC [Example 431, 2-Pyridylmethyl N-{4-[(6,7-dimethoxy-4-quinolyl)oxy]-2,3-dimethylphenyl}carbamate] | 17 nM | – | – | IC50 ([2]; 50 ng/ml h-SCF): 43 nM
14 | CCCC(CCN1CCCCC1)OC(=O)Nc1ccc(Oc2ccnc3cc(OC)c(OC)cc23)cc1 (centres unmarked) [Example 445, 1-(2-Piperidinoethyl)butyl N-{4-[(6,7-dimethoxy-4-quinolyl)oxy]phenyl}carbamate] | > 100 nM | – | – | inhibition at 0.1 µM [1]: 11%; IC50 ([2]; 50 ng/ml h-SCF): 941 nM
15 | CCC(CC)OC(=O)Nc1cc(C)c(Oc2ccnc3cc(OC)c(OC)cc23)cc1C [Example 359, 1-Ethylpropyl N-{4-[(6,7-dimethoxy-4-quinolyl)oxy]-2,5-dimethylphenyl}carbamate] | – | 28 nM | 274 nM | –
16 | COc1ccc(CCC(=O)NC(=S)Nc2ccc(Oc3ncnc4cc(OC)c(OC)cc34)cc2)cc1OC [Example 713, N-[3-(3,4-Dimethoxyphenyl)propanoyl]-N′-{4-[(6,7-dimethoxy-4-quinazolinyl)oxy]phenyl}thiourea] | 67 nM | – | – | IC50 ([2]; 50 ng/ml h-SCF): 89 nM
17 | CCOc1ccccc1C(C)OC(=O)Nc1ccc(Oc2ccnc3cc(OC)c(OC)cc23)cc1 (centres unmarked) [Example 127, 1-(2-Ethoxyphenyl)ethyl N-{4-[(6,7-dimethoxy-4-quinolyl)oxy]phenyl}carbamate] | – | 16 nM | 283 nM | –
18 | COc1cc2nccc(Oc3ccc(NC(=O)Oc4c(OC)cccc4OC)cc3)c2cc1OC [Example 280, 2,6-Dimethoxyphenyl N-{4-[(6,7-dimethoxy-4-quinolyl)oxy]phenyl}carbamate] | – | < 10 nM | 370 nM | –
19 | COc1cc2nccc(Oc3cc(C)c(NC(=S)NCCNC(C)=O)cc3C)c2cc1OC [Example 515, N-{4-[(6,7-Dimethoxy-4-quinolyl)oxy]-2,5-dimethylphenyl}-N′-(2-acetamidoethyl)thiourea] | > 100 nM | – | – | inhibition at 0.1 µM [1]: 32%; inhibition at 1 µM [2, 3]: 21%
20 | COc1cc2ncnc(Oc3ccc(NC(=O)OCCc4cccc(C(F)(F)F)c4)cc3)c2cc1OC [Example 85, 3-(Trifluoromethyl)phenethyl N-{4-[(6,7-dimethoxy-4-quinazolinyl)oxy]phenyl}carbamate] | – | < 10 nM | 163 nM | –
21 | COc1cc2nccc(Oc3cc(C)c(NC(=O)OCCCOc4ccccc4F)cc3C)c2cc1OC [Example 144, 3-(2-Fluorophenoxy)propyl N-{4-[(6,7-dimethoxy-4-quinolyl)oxy]-2,5-dimethylphenyl}carbamate] | – | 18 nM | 49 nM | –
22 | COc1cc2ncnc(Oc3ccc(NC(=S)NCCCN4CCCC4)cc3)c2cc1OC [Example 537, N-{4-[(6,7-Dimethoxy-4-quinazolinyl)oxy]phenyl}-N′-[3-(1-pyrrolidinyl)propyl]thiourea] | > 100 nM | – | – | inhibition at 0.1 µM [1]: 34%; inhibition at 1 µM [2, 3]: 34%
23 | COc1cc2nccc(Oc3ccc(NC(=O)OCCCOc4cccc(F)c4)c(C)c3C)c2cc1OC [Example 148, 3-(3-Fluorophenoxy)propyl N-{4-[(6,7-dimethoxy-4-quinolyl)oxy]-2,3-dimethylphenyl}carbamate] | – | < 10 nM | < 30 nM | –
24 | COc1cc2nccc(Oc3ccc(NCCOc4c(OC)cccc4OC)c(C)c3C)c2cc1OC [Example 884, N-[2-(2,6-Dimethoxyphenoxy)ethyl]-N-{4-[(6,7-dimethoxy-4-quinolyl)oxy]-2,3-dimethylphenyl}amine] | 44 nM | – | – | inhibition at 1 µM ([2]; figure in parentheses in −( )): 30%
25 | CCN(CC)CCNC(=S)Nc1ccc(Oc2ccnc3cc(OC)c(OC)cc23)cc1 [Example 589, N-{4-[(6,7-Dimethoxy-4-quinolyl)oxy]phenyl}-N′-(2-diethylaminoethyl)thiourea] | 28 nM | – | – | IC50 ([2]; 50 ng/ml h-SCF): 487 nM
26 | COc1ccccc1NCCOc1ccc(Oc2ccnc3cc(OC)c(OC)cc23)cc1 [Example 777, N-(2-{4-[(6,7-Dimethoxy-4-quinolyl)oxy]phenoxy}ethyl)-N-(2-methoxyphenyl)amine] | 11 nM | – | – | IC50 ([2]; 50 ng/ml h-SCF): 11 nM
